Reference: PubChem BioAssay (NCI)
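Dose response: 5 concentrations. Exposure: 48 h. Format: 96-well plates. Endpoint: linear interpolation; highest concentration if not reached. Here, GI50 denotes the concentration required for 50% inhibition of growth. TGI is the concentration that stops growth completely.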

Columns and labels:
Assay in all cases: NCI-60 cell line screen, 48 h
LOX IMVI melanoma = tested on: LOX IMVI melanoma
MDA-MB-435 = tested on: MDA-MB-435
OVCAR-4 ovarian = tested on: OVCAR-4 ovarian
BT-549 breast = tested on: BT-549 breast
MALME-3M melanoma = tested on: MALME-3M melanoma
T-47D breast = tested on: T-47D breast
CAKI-1 renal = tested on: CAKI-1 renal
KM12 colon = tested on: KM12 colon
A498 renal = tested on: A498 renal
U251 CNS = tested on: U251 CNS
SR leukemia = tested on: SR leukemia
SNB-19 CNS = tested on: SNB-19 CNS
SK-MEL-2 melanoma = tested on: SK-MEL-2 melanoma
ACHN renal = tested on: ACHN renal
SK-MEL-28 melanoma = tested on: SK-MEL-28 melanoma
NCI-H522 lung = tested on: NCI-H522 lung
TK-10 renal = tested on: TK-10 renal
NCI/ADR-RES ovarian = tested on: NCI/ADR-RES ovarian
SN12C renal = tested on: SN12C renal
HCT-15 colon = tested on: HCT-15 colon
SF-268 CNS = tested on: SF-268 CNS
OVCAR-8 ovarian = tested on: OVCAR-8 ovarian
SF-539 CNS = tested on: SF-539 CNS
MOLT-4 leukemia = tested on: MOLT-4 leukemia
IGROV1 ovarian = tested on: IGROV1 ovarian
HCC-2998 colon = tested on: HCC-2998 colon
HL-60(TB) leukemia = tested on: HL-60(TB) leukemia
UACC-257 melanoma = tested on: UACC-257 melanoma
UACC-62 melanoma = tested on: UACC-62 melanoma
A549 NSCLC = tested on: A549 NSCLC
COLO 205 colon = tested on: COLO 205 colon
DU-145 prostate = tested on: DU-145 prostate
MDA-MB-231 breast = tested on: MDA-MB-231 breast
SNB-75 CNS = tested on: SNB-75 CNS
CCRF-CEM leukemia = tested on: CCRF-CEM leukemia
RXF 393 renal = tested on: RXF 393 renal
RPMI-8226 leukemia = tested on: RPMI-8226 leukemia
HS 578T breast = tested on: HS 578T breast
HOP-92 NSCLC = tested on: HOP-92 NSCLC
NCI-H226 lung = tested on: NCI-H226 lung
SF-295 CNS = tested on: SF-295 CNS
EKVX NSCLC = tested on: EKVX NSCLC
SK-MEL-5 melanoma = tested on: SK-MEL-5 melanoma
HOP-62 NSCLC = tested on: HOP-62 NSCLC
MCF7 breast = tested on: MCF7 breast
K-562 leukemia = tested on: K-562 leukemia
NCI-H460 lung = tested on: NCI-H460 lung
SK-OV-3 ovarian = tested on: SK-OV-3 ovarian
PC-3 prostate = tested on: PC-3 prostate
OVCAR-5 ovarian = tested on: OVCAR-5 ovarian
OVCAR-3 ovarian = tested on: OVCAR-3 ovarian
SW-620 colon = tested on: SW-620 colon

For `COc1cccc(CNCCN2C(=O)c3ccc4c5c(ccc(c35)C2=O)C(=O)N(CCNCc2cccc(OC)c2)C4=O)c1`, the GI50 (LOX IMVI melanoma) was 1.79 µM, the TGI (LOX IMVI melanoma) was 3.53 µM and the GI50 (MDA-MB-435) was 1.84 µM. It also gave a TGI (MDA-MB-435) of 3.48 µM, a GI50 (OVCAR-4 ovarian) of 1.4 µM and a TGI (OVCAR-4 ovarian) of 2.71 µM. It also gave a GI50 (BT-549 breast) of 2.43 µM, a TGI (BT-549 breast) of 6.12 µM and a GI50 (MALME-3M melanoma) of 1.8 µM. The TGI (MALME-3M melanoma) was 3.76 µM, the GI50 (T-47D breast) was 2.05 µM and the TGI (T-47D breast) was 5.3 µM. It also gave a GI50 (CAKI-1 renal) of 2.61 µM, a TGI (CAKI-1 renal) of 8.27 µM and a GI50 (KM12 colon) of 1.75 µM. For the same compound, the TGI (KM12 colon) was 3.93 µM, the GI50 (A498 renal) was 14.8 µM and the TGI (A498 renal) was 28.9 µM. For the same compound, the GI50 (U251 CNS) was 2.42 µM, the TGI (U251 CNS) was 5.16 µM and the GI50 (SR leukemia) was 0.332 µM. It also gave a TGI (SR leukemia) of 2.57 µM, a GI50 (SNB-19 CNS) of 2.88 µM and a TGI (SNB-19 CNS) of 10.4 µM. The GI50 (SK-MEL-2 melanoma) was 1.89 µM, the TGI (SK-MEL-2 melanoma) was 3.85 µM and the GI50 (ACHN renal) was 6.28 µM. It also gave a TGI (ACHN renal) of 27.5 µM, a GI50 (SK-MEL-28 melanoma) of 2.22 µM and a TGI (SK-MEL-28 melanoma) of 5.2 µM. The GI50 (NCI-H522 lung) was 1.81 µM, the TGI (NCI-H522 lung) was 3.46 µM and the GI50 (TK-10 renal) was 1.85 µM. For the same compound, the TGI (TK-10 renal) was 4.31 µM, the GI50 (NCI/ADR-RES ovarian) was 2.99 µM and the TGI (NCI/ADR-RES ovarian) was > 100 µM. The GI50 (SN12C renal) was 1.67 µM, the TGI (SN12C renal) was 3.24 µM and the GI50 (HCT-15 colon) was 2.1 µM. For the same compound, the TGI (HCT-15 colon) was 4.82 µM, the GI50 (SF-268 CNS) was 4.09 µM and the TGI (SF-268 CNS) was 27 µM. For the same compound, the GI50 (OVCAR-8 ovarian) was 2.15 µM, the TGI (OVCAR-8 ovarian) was 4.85 µM and the GI50 (SF-539 CNS) was 1.79 µM. The TGI (SF-539 CNS) was 3.4 µM, the GI50 (MOLT-4 leukemia) was 14.7 µM and the TGI (MOLT-4 leukemia) was 47.9 µM. For the same compound, the GI50 (IGROV1 ovarian) was 2.36 µM, the TGI (IGROV1 ovarian) was 6.34 µM and the GI50 (HCC-2998 colon) was 5.21 µM. The TGI (HCC-2998 colon) was 19.1 µM, the GI50 (HL-60(TB) leukemia) was 2.56 µM and the TGI (HL-60(TB) leukemia) was 4.99 µM. The GI50 (UACC-257 melanoma) was 2.09 µM, the TGI (UACC-257 melanoma) was 3.82 µM and the GI50 (UACC-62 melanoma) was 1.9 µM. For the same compound, the TGI (UACC-62 melanoma) was 4 µM, the GI50 (A549 NSCLC) was 2.49 µM and the TGI (A549 NSCLC) was 5.83 µM. The GI50 (COLO 205 colon) was 1.53 µM, the TGI (COLO 205 colon) was 2.95 µM and the GI50 (DU-145 prostate) was 3.94 µM. The TGI (DU-145 prostate) was 14.9 µM, the GI50 (MDA-MB-231 breast) was 2.39 µM and the TGI (MDA-MB-231 breast) was 6.61 µM. For the same compound, the GI50 (SNB-75 CNS) was 11.2 µM, the TGI (SNB-75 CNS) was 28 µM and the GI50 (CCRF-CEM leukemia) was 3.46 µM. For the same compound, the TGI (CCRF-CEM leukemia) was 13.5 µM, the GI50 (RXF 393 renal) was 2.16 µM and the TGI (RXF 393 renal) was 7.58 µM. It also gave a GI50 (RPMI-8226 leukemia) of 2.84 µM, a TGI (RPMI-8226 leukemia) of 7.45 µM and a GI50 (HS 578T breast) of 19 µM. It also gave a TGI (HS 578T breast) of 52.8 µM, a GI50 (HOP-92 NSCLC) of 18.9 µM and a TGI (HOP-92 NSCLC) of 41.2 µM. For the same compound, the GI50 (NCI-H226 lung) was 34 µM, the TGI (NCI-H226 lung) was > 100 µM and the GI50 (SF-295 CNS) was 1.82 µM. For the same compound, the TGI (SF-295 CNS) was 3.88 µM, the GI50 (EKVX NSCLC) was 15.7 µM and the TGI (EKVX NSCLC) was 35.4 µM. The GI50 (SK-MEL-5 melanoma) was 1.52 µM, the TGI (SK-MEL-5 melanoma) was 2.86 µM and the GI50 (HOP-62 NSCLC) was 15 µM. The TGI (HOP-62 NSCLC) was 30.8 µM, the GI50 (MCF7 breast) was 1.81 µM and the TGI (MCF7 breast) was 4.39 µM. The GI50 (K-562 leukemia) was 3.03 µM, the TGI (K-562 leukemia) was 8.52 µM and the GI50 (NCI-H460 lung) was 1.96 µM. It also gave a TGI (NCI-H460 lung) of 4.33 µM, a GI50 (SK-OV-3 ovarian) of 19.1 µM and a TGI (SK-OV-3 ovarian) of 35.5 µM. For the same compound, the GI50 (PC-3 prostate) was 3.87 µM, the TGI (PC-3 prostate) was 21.6 µM and the GI50 (OVCAR-5 ovarian) was 21.1 µM. For the same compound, the TGI (OVCAR-5 ovarian) was 49.6 µM, the GI50 (OVCAR-3 ovarian) was 2.25 µM and the TGI (OVCAR-3 ovarian) was 5.93 µM. For the same compound, the GI50 (SW-620 colon) was 2.15 µM and the TGI (SW-620 colon) was 5.32 µM.
